The values below come from patent US11957716B2 (Immatics Biotechnologies GmbH, priority 2021, dated 2024).

One experiment concerns the target HLA-A*03:01 (Homo sapiens, UniProt P04439). In words: MHC binding assay, UV-ligand exchange ELISA. Conditions: peptide exchange yield, binding to HLA-A*03:01. From the text: Candidate peptides for T cell based therapies according to the present invention were further tested for their MHC binding capacity (affinity). The individual peptide-MHC complexes were produced by UV-ligand exchange, where a UV-sensitive peptide is cleaved upon UV-irradiation and exchanged with the peptide of interest as analyzed. Only peptide candidates that can effectively bind and stabilize the peptide-receptive MHC molecules prevent dissociation of the MHC complexes. To determine the yield of the exchange reaction, an ELISA was performed based on the detection of the light chain (β2m) of stabilized MHC complexes. The assay was performed as generally described in Rodenko et al. (Rodenko et al., 2006).
96 well MAXISorp plates (NUNC) were coated over night with 2 μg/ml streptavidin in PBS at room temperature, washed 4× and blocked for 1 h at 37° C. in 2% BSA containing blocking buffer. Refolded HLA-A*02:01/MLA-001 monomers served as standards, covering the range of 15-500 ng/ml. Peptide-MHC monomers of the UV-exchange reaction were diluted 100-fold in blocking buffer. Samples were incubated for 1 h at 37° C., washed four times, incubated with 2 μg/ml HRP conjugated anti-82m for 1 h at 37° C., washed again and detected with TMB solution that is stopped with […]. Absorption was measured at 450 nm. Candidate peptides that show a high exchange yield (preferably higher than 50%, most preferred higher than 75%) are generally preferred for a generation and production of antibodies or fragments thereof, and/or T cell receptors or fragments thereof, as they show sufficient avidity to the MHC molecules and prevent dissociation of the MHC complexes.
Background: In an ELISA, binding on a coated surface is turned into a signal by an enzyme label.

Experiment [1] has as its system HLA-A*01:01, HLA-A*02:01, HLA-A*03:01, HLA-A*24:02, HLA-B*07:02, HLA-B*08:01 and HLA-B*44:02. In words: HLA alleles the peptides bind to (Table 7). Format: binding, human. The conditions noted are these: allotype from the group HLA-A*01:01, HLA-A*02:01, HLA-A*03:01, HLA-A*24:02, HLA-B*07:02, HLA-B*08:01, HLA-B*44:02. From the text:
However, due to similarities in binding pattern such as the relevant anchoring positions some peptides bind to more than one allele, such an overlap is most likely, but not limited to, HLA-A*01 binding peptides also binding to HLA-B*15, HLA-A*03 binding peptides also binding to HLA-A*11, HLA-B*07 binding peptides also binding to HLA-B*35 and HLA-B*51.

“1 (AILAPPAILK; listed as Homo sapiens) [compound 1]”: the Peptide exchange entry in the experiment with HLA-A*03:01 is listed as “++++ (≥75% = ++++)”. For the same substance, the “Binders (HLA alleles the peptides according to the invention bind to)” value (“Binders” for short) in experiment [1] is “HLA-A*03:01”.
For “161 (ILAASFQAR; listed as Homo sapiens) [compound 161]” the same measures were “+++ (≥50% = +++)” and “HLA-A*03:01”.
For “138 (RTLPLEGSPK; listed as Homo sapiens) [compound 138]” the same measures were “+++ (≥50% = +++)” and “HLA-A*03:01”.
The like results for “50 (KTIDLVIVR; listed as Homo sapiens) [compound 50]” were, in that order, “++++ (≥75% = ++++)” and “HLA-A*03:01”.
In the case of “128 (MTFVPLLAR; listed as Homo sapiens) [compound 128]”, in the experiment with HLA-A*03:01, the Peptide exchange result is given as “++++ (≥75% = ++++)”. The “Binders” value in experiment [1] is “HLA-A*03:01”.
For “150 (IVFLLQQGEK; listed as Homo sapiens) [compound 150]” the same measures were “+++ (≥50% = +++)” and “HLA-A*03:01”.
The like results for “152 (KIMEILNLK; listed as Homo sapiens) [compound 152]” were, in that order, “++++ (≥75% = ++++)” and “HLA-A*03:01”.
The like results for “29 (GTFIAPVMK; listed as Homo sapiens) [compound 29]” were, in that order, “++++ (≥75% = ++++)” and “HLA-A*03:01”.
As to “193 (ILQLITVNR; listed as Homo sapiens) [compound 193]”, in the experiment with HLA-A*03:01, the Peptide exchange result was “+++ (≥50% = +++)”. Besides, the “Binders” value in experiment [1] is listed as “HLA-A*03:01”.
For “37 (RLYSGSSFLY; listed as Homo sapiens) [compound 37]” the same measures were “++++ (≥75% = ++++)” and “HLA-A*03:01”.
The like results for “17 (MVNWSLTNK; listed as Homo sapiens) [compound 17]” were, in that order, “++++ (≥75% = ++++)” and “HLA-A*03:01”.
“107 (SVISVLTTPK; listed as Homo sapiens) [compound 107]”: the Peptide exchange entry with HLA-A*03:01 is “++++ (≥75% = ++++)”. In experiment [1], the “Binders” value was “HLA-A*03:01”.
For “75 (TTAAVYILK; listed as Homo sapiens) [compound 75]” the same measures were “+++ (≥50% = +++)” and “HLA-A*03:01”.
The like results for “187 (RLCPAAPTGK; listed as Homo sapiens) [compound 187]” were, in that order, “++++ (≥75% = ++++)” and “HLA-A*03:01”.
For “20 (ILAPPAILK; listed as Homo sapiens) [compound 20]” the same measures were “++++ (≥75% = ++++)” and “HLA-A*03:01”.
“190 (STQSSLLYLK; listed as Homo sapiens) [compound 190]”: the Peptide exchange entry with HLA-A*03:01 was “+++ (≥50% = +++)”. Moreover, in experiment [1], the “Binders” value is reported as “HLA-A*03:01”.
The like results for “81 (KLIAGLIFLK; listed as Homo sapiens) [compound 81]” were, in that order, “+++ (≥50% = +++)” and “HLA-A*03:01”.
The like results for “28 (ATLQAVTLYKK; listed as Homo sapiens) [compound 28]” were, in that order, “++++ (≥75% = ++++)” and “HLA-A*03:01”.
For “166 (VIFLHQPPK; listed as Homo sapiens) [compound 166]” the same measures were “++++ (≥75% = ++++)” and “HLA-A*03:01”.
“174 (LSGPVTFLR; listed as Homo sapiens) [compound 174]”: the Peptide exchange entry with HLA-A*03:01 was “+++ (≥50% = +++)”. Moreover, the “Binders” value in experiment [1] is given as “HLA-A*03:01”.
The like results for “88 (KVGAVVHLK; listed as Homo sapiens) [compound 88]” were, in that order, “+++ (≥50% = +++)” and “HLA-A*03:01”.
The like results for “53 (TTLENLPQK; listed as Homo sapiens) [compound 53]” were, in that order, “+++ (≥50% = +++)” and “HLA-A*03:01”.
For “61 (GLIAFAIFK; listed as Homo sapiens) [compound 61]”, the “Binders” value in experiment [1] was “HLA-A*03:01”.
“104 (GSLQTLPPK; listed as Homo sapiens) [compound 104]”: the Peptide exchange result in the experiment with HLA-A*03:01 is listed as “+++ (≥50% = +++)”. In addition, the “Binders” value in experiment [1] is “HLA-A*03:01”.
“79 (SLFRLSISF; listed as Homo sapiens) [compound 79]”: the “Binders” value in experiment [1] is recorded as “HLA-A*24:02”.
With “34 (LLFKGLMWK; listed as Homo sapiens) [compound 34]”, the Peptide exchange result with HLA-A*03:01 is given as “++++ (≥75% = ++++)”. Moreover, the “Binders” value in experiment [1] is reported as “HLA-A*03:01”.
Turning to “127 (TVATQVATSK; listed as Homo sapiens) [compound 127]”, the Peptide exchange entry with HLA-A*03:01 is “+++ (≥50% = +++)”. Besides, the “Binders” value in experiment [1] was “HLA-A*03:01”.
In the case of “149 (SMNSKALRWK; listed as Homo sapiens) [compound 149]”, the Peptide exchange result with HLA-A*03:01 is “+++ (≥50% = +++)”. The “Binders” value in experiment [1] was “HLA-A*03:01”.
The like results for “2 (GTVFVLLSK; listed as Homo sapiens) [compound 2]” were, in that order, “++ (≥20% = ++)” and “HLA-A*03:01”.
The like results for “148 (SVYMATTLK; listed as Homo sapiens) [compound 148]” were, in that order, “++++ (≥75% = ++++)” and “HLA-A*03:01”.
Consider “204 (VVRASSGLK; listed as Homo sapiens) [compound 204]”, for which the Peptide exchange entry in the experiment with HLA-A*03:01 is on record as “+++ (≥50% = +++)”. Also, the “Binders” value in experiment [1] is “HLA-A*03:01”.
Turning to “154 (TVTSAIVNR; listed as Homo sapiens) [compound 154]”, the Peptide exchange entry with HLA-A*03:01 is reported as “+++ (≥50% = +++)”. The “Binders” value in experiment [1] was “HLA-A*03:01”.
The like results for “205 (SLIPIVPFKS; listed as Homo sapiens) [compound 205]” were, in that order, “++ (≥20% = ++)” and “HLA-A*03:01”.
For “144 (IIVPSFYK; listed as Homo sapiens) [compound 144]” the same measures were “+++ (≥50% = +++)” and “HLA-A*03:01”.
The like results for “38 (AVVSHFILY; listed as Homo sapiens) [compound 38]” were, in that order, “+++ (≥50% = +++)” and “HLA-A*03:01”.
As for “8 (VIYNQTLMK; listed as Homo sapiens) [compound 8]”, the Peptide exchange result with HLA-A*03:01 was “++++ (≥75% = ++++)”. Further, in experiment [1], the “Binders” value is listed as “HLA-A*03:01”.
For “125 (ALAQGANLK; listed as Homo sapiens) [compound 125]”, the Peptide exchange result with HLA-A*03:01 is recorded as “+++ (≥50% = +++)”. Besides, the “Binders” value in experiment [1] is reported as “HLA-A*03:01”.
Consider “211 (VVTIVMHIYK; listed as Homo sapiens) [compound 211]”, for which, in experiment [1], the “Binders” value was “HLA-A*03:01”.
On the same count and under the same terms, the entry for “176 (AFLLSLISL; listed as Homo sapiens) [compound 176]” is “HLA-A*24:02”.
Still for that read-out and setting: with “172 (LLYKTLIIL; listed as Homo sapiens) [compound 172]” the entry was “HLA-A*02:01”; with “197 (HHTQLVFVF; listed as Homo sapiens) [compound 197]”, “HLA-A*24:02”.
Still for that read-out and setting: the entry for “119 (VLHGLLFTL; listed as Homo sapiens) [compound 119]” is “HLA-A*02:01”.
